These compounds were tested against T1, ER Alpha-LBD (GST) (Homo sapiens, UniProt P03372) (assay: ER binding assay (LanthaScreen TR-FRET ER Alpha Competitive Binding Assay)). Settings: Fluormone ES2 Green tracer, read-out: ERα Ki.
T1 construct: purchased Thermo Fisher
T1 sequence (P03372 311-547 limits assumed): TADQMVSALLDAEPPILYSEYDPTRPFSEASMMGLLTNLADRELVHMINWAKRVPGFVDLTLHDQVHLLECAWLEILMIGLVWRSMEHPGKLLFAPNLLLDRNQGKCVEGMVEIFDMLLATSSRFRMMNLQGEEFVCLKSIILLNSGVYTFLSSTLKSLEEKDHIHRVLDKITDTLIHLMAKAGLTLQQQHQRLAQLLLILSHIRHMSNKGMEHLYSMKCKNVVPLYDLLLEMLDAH
Experimental: Cells were plated at varying density in the respective growth medium in 96 well plates. 24 hr later, cells were treated, in triplicate or quadruplicate, with test articles prepared in a range of concentrations by series dilution of DMSO stock solutions in growth medium and incubated for three to seven days. The number of viable 22RV1 and HT-29 cells was measured using CellTiter Glo assay (CTG, Promega, Madison, WI) after three days of treatment. The other types of cancer cells were re-treated at three or four days and the number of viable cells was measured using CTG assay after a total treatment time of six or seven days. Cell viability data were plotted using GraphPad Prism (GraphPad Software, Inc., San Diego, CA). In addition, a nonlinear regression model with a sigmoidal dose response and variable slope within GraphPad Prism was used to calculate the IC50 value of individual test articles. Additional cell proliferation assays: Other cancer cell lines are tested in a cell proliferation assay. For example, SK-OV-3 or OVCAR3 ovarian cancer cells are tested. Cells are cultured in medium recommended by the supplier (e.g., ATCC or JCRB Cell Bank), at 37° C. in a 5% CO2 environment. For the proliferation assay, cells are plated in the growth medium in 96 well plates. Seeding density is adjusted according to the cell type. […] The number of viable cells is measured using CellTiter Glo assay (CTG, Promega, Madison, WI) or similar. […] ER binding assay: ERα binding was assessed by the LanthaScreen® TR-FRET ER Alpha Competitive Binding Assay at Thermo Fisher. […] Competitive binding to the ER Alpha-LBD (GST) was detected by a test compound's ability to displace a fluorescent ligand (Fluormone™ ES2 Green tracer) from the ER Alpha-LBD (GST), which results in a loss of FRET signal between the Tb-anti-GST antibody and the tracer. […] After an incubation period at room temperature, the TR-FRET ratio of 520:495 emissions were calculated and was used to determine the IC50 from a dose response curve of the compound. […]

**Q.** Which Ki does the source give for O=C(c1ccc(OCCN2CCN(C(=O)c3cc(Cc4n[nH]c(=O)c5ccccc45)ccc3F)CC2)cc1)c1c(-c2ccc(O)cc2)sc2cc(O)ccc12 [Compound 2.13, 4-(4-fluoro-3-(4-(2-(4-(6-hydroxy-2-(4-hydroxyphenyl)benzo[b]thiophene-3-carbonyl)phenoxy)ethyl)piperazine-1-carbonyl)benzyl)phthalazin-1(2H)-one] here?
**A.** 3.3 nM

**Q.** For CCC(=C(c1ccc(O)cc1)c1ccc(OCCN2CCN(C(=O)c3cc(Cc4n[nH]c(=O)c5ccccc45)ccc3F)CC2)cc1)c1ccccc1 [Compound 2.14, 4-(4-fluoro-3-(4-(2-(4-(1-(4-hydroxyphenyl)-2-phenylbut-1-enyl)phenoxy)ethyl)piperazine-1-carbonyl)benzyl)pthalazin-1(2H)-one], which Ki is on record?
**A.** 3.5 nM

**Q.** For CN(CCCCCC(=O)N1CCN(C(=O)c2cc(Cc3n[nH]c(=O)c4ccccc34)ccc2F)CC1)CCOc1ccc(C(=O)c2c(-c3ccc(O)cc3)sc3cc(O)ccc23)cc1 [Compound 2.4, 4-(4-fluoro-3-(4-(6-((2-(4-(6-hydroxy-2-(4-hydroxyphenyl)benzo[b]thiophene-3-carbonyl)phenoxy)ethyl)(methyl)amino)hexanoyl)piperazine-1-carbonyl)benzyl)phthalazin-1(2H)-one], which Ki is on record?
**A.** 5 nM

Reference: patent publication US12398121B2 (Nuvation Bio Inc., priority 2018, dated 2025)
